Measurements as given in patent US6391848B1, “Soybean protein nutraceuticals” (The Regents of the University of California, priority 1999, dated 2002).

Experiments:
[1] = tested on: carcinogen-treated cultured cells; settings: in vitro or in vivo; cited from earlier work
[2] = tested on: C3H 10T1/2 mouse fibroblast cells; experiment: in vitro transformation assay of C3H 10T1/2 cells with carcinogens MCA and DMBA; type: cell-based
[3] = tested on: mammalian cells; experiment: internalization of lunasin into the cell; type: cell-based
Description: (§1) The lunasin polypeptide also contains a functional RGD (arg-gly-asp) motif.
Chromatin Modification and Tumor Suppression. […] (DePinho,1998; Brehm et al, 1998; Magnaghi-Jaulin, 1998; Pazin and Kadonaga, 1997; Hassig et al, 1997; Laherty et al, 1997). For instance, the retinoblastoma protein Rb is complexed with E2F (a family of transcription factors controlled by Rb) and HDAC1 (the major mammalian histone deacetylase which modulates chromatin structure) in mammalian cells. Rb represses E2F-regulated promoter by recruiting HDAC1 which deacetylates core histones causing a tighter association between DNA and nucleosomes, thus impairing the binding of transcription factors to recognition elements in DNA. The Rb/HDAC/E2F complex could be the target for transforming viruses leading to the release of suppression and a fully transformed state. […] Consequently, gene expression is more or less permanently repressed.

[4] = tested on: hypoacetylated chromatin; experiment: binding of lunasin to chromatin in cells; type: cell-based
Description: as §1

[5] = tested on: mammalian cells; experiment: effect on mitosis and kinetochore assembly of mammalian cells; type: cell-based
Description: as §1

[6] = tested on: cell membrane integrins; experiment: binding to cell membrane integrins in mammalian cell cultures; type: cell-based; settings: exogenously applied; through the RGD tripeptide
Description: as §1

[7] = tested on: carcinogenesis; experiment: inhibition of carcinogenesis in in vitro and animal models; settings: comparable dosages and routes of administration; cell and animal studies
Description: Exemplary lunasin-del compounds include (again using N→C nomenclature convention) shown to be effective at inhibiting carcinogenesis in in vitro and animal models include:
BBI is an 8 kDa protein that is known to dimerize in solution.

| Compound | effect on carcinogenesis after administration of the agent is stopped [1] | concentration of exogenously applied peptide (as low as) that inhibits transformation into tumorous foci ([2]; carcinogens MCA and DMBA, range 10 nM to 10 mM) | prevention of carcinogen-induced tumor formation compared with BBIC ([2]; equimolar amounts) | inhibition of carcinogen-mediated transformation of fibroblast cells into tumorous foci ([2]; exogenous application, carcinogens MCA and DMBA) | internalization in the cell [3] | binding to chromatin ([4]; exogenously applied to mammalian cell cultures, lunasin that gets into the nucleus) | binding to chromatin ([4]; lunasin gene transfected and expressed inside the cell) | effect on kinetochore assembly ([5]; exogenously applied, internalized lunasin, cells undergo normal mitosis) | effect on mitosis ([5]; when expressed in mammalian cells) | binding to cell membrane integrins [6] | efficacy when substituted for BBI [7] |
| --- | --- | --- | --- | --- | --- | --- | --- | --- | --- | --- | --- |
| CC1=C(/C=C/C(C)=C/C=C/C(C)=C/C=C/C=C(C)/C=C/C=C(C)/C=C/C2=C(C)CCCC2(C)C)C(C)(C)CCC1 [b-carotene] | reversible effect |  |  |  |  |  |  |  |  |  |  |
| lunasin |  | 10 nM | more effective than BBIC | inhibits the transformation | gets internalized in the cell via the RGD motif | sufficient to effectively bind regions of hypoacetylated chromatin | preferentially binds to hypoacetylated chromatin | appears not to affect kinetochore assembly | antimitotic effect | binds to cell membrane integrins | provides efficacy |
| vitamin E | reversible effect |  |  |  |  |  |  |  |  |  |  |
